How the values were obtained:
Assay in all cases: relative viability (nuclei count vs DMSO), 5 days (fraction); higher = more cells survive
[1] = compound: C1=CC=C(C(=C1)C2=CC=C(C=C2)C3=CSC4=C3C(=C(C(=O)N4)C#N)O)O + CC1(C)CCC(c2ccc(Cl)cc2)=C(CN2CCN(c3ccc(C(=O)NS(=O)(=O)c4ccc(N[C@H](CCN5CCOCC5)CSc5ccccc5)c(S(=O)(=O)C(F)(F)F)c4)cc3)CC2)C1 [Navitoclax] (partner 0.5 µM)
Summary of the method: (§1)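 One day after seeding in 1536-well plates, lung cancer cell lines were dosed by pin tool. Dosing was either single-drug or a fixed anchor-drug dose plus five library-drug doses (not always all listed) in √10 steps. After 5 days, nuclei were stained in one fix-and-stain step and counted on 4× images, and relative viability is the nuclei count of treated wells over that of vehicle wells, given as the median of duplicate plates.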

[2] = compound: C1=CC=C(C(=C1)C2=CC=C(C=C2)C3=CSC4=C3C(=C(C(=O)N4)C#N)O)O + N=C(N)NC(=N)NCCc1ccccc1 [Phenformin] (partner 250 µM)
Summary of the method: as §1

TGX 221 + Trametinib = compound: CC1=CN2C(=O)C=C(N=C2C(=C1)C(C)NC3=CC=CC=C3)N4CCOCC4 [TGX 221] + CC(=O)Nc1cccc(-n2c(=O)n(C3CC3)c(=O)c3c(Nc4ccc(I)cc4F)n(C)c(=O)c(C)c32)c1 [Trametinib] (partner 0.02 µM)
Summary of the method: as §1

TGX 221 + Luminespib = compound: CC1=CN2C(=O)C=C(N=C2C(=C1)C(C)NC3=CC=CC=C3)N4CCOCC4 [TGX 221] + CCNC(=O)c1noc(-c2cc(C(C)C)c(O)cc2O)c1-c1ccc(CN2CCOCC2)cc1 [Luminespib] (partner 0.01 µM)
Summary of the method: as §1

Row | Cell Line | relative viability ([1]; first compound 0.08 µM) | relative viability ([1]; first compound 0.253 µM) | relative viability ([1]; first compound 0.8 µM) | relative viability ([1]; first compound 2.53 µM) | relative viability ([1]; first compound 8 µM) | relative viability ([2]; first compound 0.08 µM) | relative viability ([2]; first compound 0.253 µM) | relative viability ([2]; first compound 0.8 µM) | relative viability ([2]; first compound 2.53 µM) | relative viability ([2]; first compound 8 µM) | relative viability (TGX 221 + Trametinib; first compound 0.08 µM) | relative viability (TGX 221 + Trametinib; first compound 0.253 µM) | relative viability (TGX 221 + Trametinib; first compound 0.8 µM) | relative viability (TGX 221 + Trametinib; first compound 2.53 µM) | relative viability (TGX 221 + Trametinib; first compound 8 µM) | relative viability (TGX 221 + Luminespib; first compound 0.08 µM) | relative viability (TGX 221 + Luminespib; first compound 0.253 µM) | relative viability (TGX 221 + Luminespib; first compound 0.8 µM) | relative viability (TGX 221 + Luminespib; first compound 2.53 µM) | relative viability (TGX 221 + Luminespib; first compound 8 µM)
1 | NCI-H1666 | 0.946 | 1.03 | 0.876 | 0.944 | 0.879 | 0.578 | 0.739 | 0.547 | 0.532 | 0.484 | 0.726 | 0.797 | 0.852 | 0.884 | 0.742 | 1.08 | 0.977 | 1.03 | 1.02 | 0.975
2 | NCI-H1734 | 0.793 | 0.979 | 0.886 | 0.972 | 0.492 | 0.368 | 0.381 | 0.41 | 0.377 | 0.319 | 0.678 | 0.602 | 0.71 | 0.66 | 0.688 | 0.232 | 0.178 | 0.202 | 0.17 | 0.18
3 | NCI-H1755 | 1.03 | 1.13 | 0.98 | 1.08 | 0.78 | 0.693 | 0.647 | 0.606 | 0.617 | 0.6 | 0.792 | 0.743 | 0.646 | 0.647 | 0.628 | 0.441 | 0.65 | 0.33 | 0.394 | 0.258
4 | NCI-H1793 | 0.406 | 0.753 | 0.41 | 0.443 | 0.359 | 0.306 | 0.427 | 0.372 | 0.318 | 0.229 | 0.462 | 0.374 | 0.398 | 0.357 | 0.306 | 0.198 | 0.265 | 0.174 | 0.127 | 0.155
5 | NCI-H1915 | 0.811 | 0.769 | 0.83 | 0.826 | 0.771 | 0.342 | 0.32 |  | 0.376 | 0.325 | 0.283 | 0.29 | 0.29 | 0.274 | 0.238 | 0.726 | 0.747 | 0.745 | 0.757 | 0.725
6 | NCI-H1944 | 1.05 | 1.03 | 1.02 | 1.1 | 1.08 | 0.155 | 0.207 | 0.166 | 0.215 | 0.175 |  | 0.367 | 0.327 | 0.401 | 0.32 | 0.649 | 0.742 | 0.795 | 0.587 | 0.399
7 | NCI-H1975 | 0.958 | 1.25 | 1.15 | 1.22 | 0.731 | 0.379 | 0.425 | 0.403 | 0.393 | 0.394 | 0.313 | 0.414 | 0.356 | 0.289 | 0.272 | 0.151 | 0.2 | 0.138 | 0.2 | 0.145

From the supplement of paper PMC10307832
